Experiments:
[1] = system: neutrophils (PMA-stimulated ROS); assay: ROS detection assay (ROS-Glo, H2O2); assay type: cell-based; conditions: Neutrophil; human neutrophils, 30 min preincubation, 50 nM PMA for 30 min
Method: ROS were measured in neutrophils using the ROS-Glo bioluminescent assay (Promega) for the direct detection of H2O2. Neutrophils were isolated from fresh human blood using a biphasic Histopaque gradient as described here. Cells (100 uL per well) were plated in 96-well plates at a density of 200,000 cells/mL in high glucose DMEM medium. Cells were preincubated with either DMSO vehicle or compounds (10-point dilution curve starting at 2 uM with 3-fold serial dilution) for 30 min, and then stimulated with 50 nM PMA for 30 min. Luminescence, after the addition of H2O2 substrate solution for 20 min, and then ROS-Glo detection solution for 20 min, was recorded on a luminescence plate reader. The fifty percent inhibitory concentration (IC50) was determined with GraphPad Prism by plotting the assay output (RLU) versus the logarithm of the compound concentration using a non-linear sigmoid with variable slope algorithm with the default curve-fitting parameters in the Prism software.

[2] = system: neutrophils (PMA-stimulated NETosis); assay: Quantification of NETosis using SYTOX Green; assay type: cell-based, human; conditions: for 5 uM (% NETosis): compound at 5 uM, NET-forming cells as percentage of total cells, vehicle 79.66, untreated 14.54
Excerpt: Semi-automated analysis of both phase and fluorescence images of SYTOX Green-stained neutrophils used a MATLAB algorithm. Total cells were counted by scoring phase standard deviation and radial symmetry. NETosis was classified in cells by measuring the DNA area in the fluorescence image and comparing with a select internal training set for each experiment. Unstimulated cells and PMA-stimulated, pyocyanin-inhibited cells served as negative controls. PMA-stimulated cells served as a positive control. NET-forming cells are presented as a percentage of total cells.

| IC50 [1] [nM] | SMILES | 5 uM (% NETosis) [2] [%] | IC50 ([2]; Homo sapiens, Neutrophil, NETosis, SYTOX Green-stained neutrophils, PMA-stimulated) [nM] |
| --- | --- | --- | --- |
| 3100 | CC(=O)Nc1ccc2c(c1)OCc1cc(-c3cncnc3)nn1C2 [Example 128] |  |  |
| 480 | CC(=O)Nc1ccc2c(c1)OCc1cc(-c3cnn(C4CC4)c3)nn1C2 [Example 109] |  |  |
| > 20000 | c1ccc(-c2cc3n(n2)Cc2ccc(Nc4cn[nH]c4)cc2OC3)cc1 [Example 19] | 62.75 |  |
| 346 | CC(=O)Nc1ccc2c(c1)OCc1cc(-c3cnn(CC(C)C)c3)nn1C2 [Example 120] |  |  |
| 93 | CC(=O)Nc1ccc2c(c1)OCc1cc(-c3ccccc3)nn1C2 [Example 1, N-(2-Phenyl-4H,10H-benzo[f]pyrazolo[5,1-c][1,4]oxazepin-7-yl)acetamide] | 37.78 | 190 ± 30 |
| 204 | CC(=O)Nc1ccc2c(c1)OCc1cc(-c3cnn(CF)c3)nn1C2 [Example 117] |  |  |
| > 20000 | CC(=O)Nc1ccc2c(c1)OCc1cc(-c3c[nH]nc3C3CC3)nn1C2 [Example 118] |  |  |
| 46 | CC(=O)Nc1ccc2c(c1)OCc1cc(-c3ccccc3F)nn1C2 [Example 55] | 36.33 |  |
| 1580 | CC(=O)Nc1ccc2c(c1)OCc1cc(-c3cn(C)nc3C(F)(F)F)nn1C2 [Example 110] |  |  |
| > 20000 | Cc1cc(Nc2ccc3c(c2)OCc2cc(-c4ccccc4)nn2C3)[nH]n1 [Example 33] | 69.42 |  |
| 1360 | CC(=O)Nc1ccc2c(c1)OCc1cc(-c3cccnc3)nn1C2 [Example 127] |  |  |
| 56 | CC(=O)Nc1ccc2c(c1)OCc1cc(-c3cnn(C(F)(F)F)c3)nn1C2 [Example 125, N-(2-(1-(trifluoromethyl)-1H-pyrazol-4-yl)-4H,10H-benzo[f]pyrazolo[5,1-c][1,4]oxazepin-7-yl)acetamide] |  |  |
| 836 | CC(=O)Nc1ccc2c(c1)OCc1cc(-c3cnn(C)c3C)nn1C2 [Example 121] |  |  |
| 903 | CC(=O)Nc1ccc2c(c1)OCc1cc(-c3ccncc3F)nn1C2 [Example 129] |  |  |
| 2440 | CC(=O)Nc1ccc2c(c1)OCc1cc(-c3cc(C)nn3C)nn1C2 [Example 58] | 53.96 |  |
| > 20000 | CC(=O)Nc1ccc2c(c1)OCc1cc(-c3cncs3)nn1C2 [Example 54] | 37.45 |  |
| 1400 | c1ccc(-c2cc3n(n2)Cc2ccc(Nc4ccn[nH]4)cc2OC3)cc1 [Example 36] | 46.06 |  |
| 529 | CC(=O)Nc1ccc2c(c1)OCc1cc(-c3ccnc(C)c3)nn1C2 [Example 126] |  |  |
|  | FC1(F)CC1CNc1ccc2c(c1)OCc1cc(-c3ccccc3)nn1C2 (stereo not drawn) [Example 40] | 71.44 |  |
| 1460 | CC(=O)Nc1ccc2c(c1)OCc1cc(-c3cn(C)nc3C)nn1C2 [Example 113] |  |  |
|  | CNC(=O)c1cccc(-c2cc3n(n2)Cc2ccc(NC(C)=O)cc2OC3)c1 [Example 101] | 85.18 |  |
|  | COc1ccc(-c2cc3n(n2)Cc2ccc(NC(C)=O)cc2OC3)c(C)c1 [Example 83] | 51.91 |  |
|  | CC(=O)Nc1ccc2c(c1)OCc1cc(-c3ccccc3S(C)(=O)=O)nn1C2 [Example 81] | 84.34 |  |
|  | CNC(=O)c1ccc(-c2cc3n(n2)Cc2ccc(NC(C)=O)cc2OC3)cn1 [Example 73] | 82.63 |  |
| 2100 | CC(=O)Nc1ccc2c(c1)OCc1cc(-c3c[nH]nc3C(C)C)nn1C2 [Example 111] |  |  |
| 192 | CC(=O)Nc1ccc2c(c1)OCc1cc(-c3cnn(C(F)F)c3)nn1C2 [Example 67, N-(2-(1-(difluoromethyl)-1H-pyrazol-4-yl)-4H,10H-benzo[f]pyrazolo[5,1-c][1,4]oxazepin-7-yl)acetamide] | 39.88 |  |

| IC50 [1] [nM] | SMILES | 5 uM (% NETosis) [2] [%] | IC50 ([2]; Homo sapiens, Neutrophil, NETosis, SYTOX Green-stained neutrophils, PMA-stimulated) [nM] |
| --- | --- | --- | --- |
|  | CC(=O)Nc1cccc(-c2cc3n(n2)Cc2ccc(NC(C)=O)cc2OC3)c1 [Example 104] | 26.79 |  |
|  | CC(=O)Nc1ccc2c(c1)OCc1cc(-c3ccccc3C3CC3)nn1C2 [Example 76] | 63.32 |  |
|  | c1ccc(-c2cc3n(n2)Cc2ccc(-c4cn[nH]c4)cc2OC3)cc1 [Example 17] | 76.49 |  |
|  | COc1cccc(C#N)c1-c1cc2n(n1)Cc1ccc(NC(C)=O)cc1OC2 [Example 94] | 90.90 |  |
|  | CC(=O)Nc1ccc2c(c1)OCc1cc(-c3cccnc3C3CC3)nn1C2 [Example 65] | 83.56 |  |
|  | CC(=O)Nc1ccc2c(c1)OCc1cc(-c3ccnc(C4CC4)c3)nn1C2 [Example 62] | 41.23 |  |
| 714 | CC(=O)Nc1ccc2c(c1)OCc1cc(-c3cnn(C4COC4)c3)nn1C2 [Example 119] |  |  |
|  | CC(=O)Nc1ccc2c(c1)OCc1cc(-c3cnn(CC(F)(F)F)c3)nn1C2 [Example 93] | 73.17 |  |
|  | C#Cc1ccccc1-c1cc2n(n1)Cc1ccc(NC(C)=O)cc1OC2 [Example 44] | 83.27 |  |
|  | CC(=O)Nc1ccc2c(c1)OCc1cc(-c3ccc(S(C)(=O)=O)nc3)nn1C2 [Example 64] | 75.82 |  |
|  | Cn1cc(Nc2ccc3c(c2)OCc2cc(-c4ccccc4)nn2C3)cn1 [Example 25] | 78.63 |  |
| 233 | CC(=O)Nc1ccc2c(c1)OCc1cc(-c3ccncc3C)nn1C2 [Example 68] | 43.49 |  |
|  | Cn1cc(-c2ccc3c(c2)OCc2cc(-c4ccccc4)nn2C3)cn1 [Example 11] | 80.81 |  |
| 410 | CC(=O)Nc1ccc2c(c1)OCc1cc(-c3ccncc3)nn1C2 [Example 124] |  |  |
| 285 | CC(=O)Nc1ccc2c(c1)OCc1cc(-c3cnn(C(C)C)c3)nn1C2 [Example 108] |  |  |
|  | OCCn1cc(Nc2ccc3c(c2)OCc2cc(-c4ccccc4)nn2C3)cn1 [Example 20] | 77.97 |  |
|  | CC(=O)Nc1ccc2c(c1)OCc1cc(-c3ccccc3C)nn1C2 [Example 50] | 72.49 |  |
| 7750 | CC(=O)Nc1ccc2c(c1)OCc1cc(-c3cnn(C4CCCCO4)c3)nn1C2 (stereo not drawn) [Example 115] |  |  |
| 1200 | CC(=O)Nc1ccc2c(c1)OCc1cc(-c3cnn4c3CCC4)nn1C2 [Example 122] |  |  |
|  | FC(F)(F)CNc1ccc2c(c1)OCc1cc(-c3ccccc3)nn1C2 [Example 37] | 83.25 |  |
| 3050 | CC(=O)Nc1ccc2c(c1)OCc1cc(-c3cnn(C)c3)nn1C2 [Example 112] |  |  |
|  | CC(=O)NCc1cc(-c2cc3n(n2)Cc2ccc(NC(C)=O)cc2OC3)ccc1F [Example 98] | 48.65 |  |
|  | CC(=O)Nc1ccc2c(c1)OCc1cc(-c3ccc4[nH]c(=O)oc4c3)nn1C2 [Example 87] | 78.92 |  |
| 405 | CCn1cc(-c2cc3n(n2)Cc2ccc(NC(C)=O)cc2OC3)cn1 [Example 114] |  |  |
| 510 | N#CCNc1ccc2c(c1)OCc1cc(-c3ccccc3)nn1C2 [Example 39] | 52.08 |  |
|  | CC(=O)Nc1ccc2c(c1)OCc1cc(-c3ccc(N4CCCC4)nc3)nn1C2 [Example 79] | 83.33 |  |
